Experimental data published in patent US20100266503A1, “Breast Cancer Methods, Medicaments and Agents” (priority 2007, published 2010).
Non-standard residues stand in square brackets, D forms with d. Residues, ends and D or L forms follow the SMILES beside them. *: point of attachment. Nle = CCCC[C@H](N)C(=O)O; Cbz = O=C(OCc1ccccc1)*

Assays:
Type in all cases: cell-based
[1] = system: GS components, Notch 1, Actin and Lamin A/C in a single breast cancer cell line; experiment: Western blot of protein levels after GSI1; settings: 750 nM GSI1 vs DMSO control
Description: Western blot analysis of GS components, Notch 1, Actin and Lamin A/C in response to DMSO control (1) or 750 nm GSI1 (2). Tubulin was used as a loading control.
FIG. 10 illustrates the effect of GSI1 on the protein levels of the GS components and of Notch 1, Actin and Lamin A/C in a single breast cancer cell line. Shown, are Western blots of the proteins in reponse to treatment with GSI1 (750 nM) or DMSO control. All antibodies were from Abcam unless otherwise stated. Notch1 (Mouse) 1:500, Nicastrin rabbit 1:500, Pen-2 rabbit 1:1000, Presenilin, Goat 1:200, APH-1A Rabbit, 1:500, APH-1B Rabbit, 1:1000, Actin Mouse, 1:20,000(Santa Cruz), Tubulin, Mouse, 1:1000 (Sigma), Lamin NC 1:5000 (Santa Cruz). Secondary Antibodies used were goat anti mouse horseradish peroxidase (Sigma) 1:5000, goat anti-rabbit horseradish peroxidase (Sigma 1:10000) and donkey anti-goat horseradish peroxidase (Sigma 1:5000). Although GSI1 had some effects on protein expression these were marginal apart from Notch 1.

[2] = system: MDA-MB-231, T47D and MCF-7 cells; experiment: Annexin V staining / full cell cycle analysis by FACS after GSI1
Description: (§1) We next did Annexin V staining which is a marker of apoptosis. Cells were treated with GSI1 for 0, 7, 24 and 48 hours. After trypsinizing, the cells were washed with PBS 5 times and then treated with RNAase (100 μg/ml) for 20 mins then propidium iodide was added at 50 μg/ml per 1×10^7 cells, and incubated overnight at 4° C. The samples were then filtered through a 70 μm mesh and run on a FACS with the following settings: Forward scatter 113, side scatter 356 and PE setting 380. Although there was an increase in staining indicating apoptosis, this was only approximately 10%. For example, in MDA-MB-231 cells there was a 5% increase in Annexin V staining after 7 hours of treatment and in T47D and MCF-7 cells there was an 8% increase in Annexin V staining. We have repeated these experiments with full cell cycle analysis at 7, 24 and 48 h post treatment and again detect apoptosis but […]. […] Nevertheless it is likely that cell proliferation is inhibited via another mechanism as opposed to the induction of cellular death.

MCF-7 cells = experiment: Annexin V staining after GSI1
Description: as §1

T47D cells = experiment: Annexin V staining after GSI1
Description: as §1

MDA-MB-231 cells = experiment: Annexin V staining after GSI1; settings: after 7 hours of treatment
Description: as §1

[3] = system: Gamma Secretase Activity in breast cancer cell lines; experiment: Gamma-Secretase Activity Assay (R&D Systems kit) upon GSI1 treatment; settings: 750 nM, 2 uM, 5 uM; 24 and 48 hours
Description: 1.5×10^6 cells were plated out and allowed to adhere overnight. The next day, cells were treated with increasing concentrations of GSI1 (750 nM, 2 uM, 5 uM) for 24 and 48 hours. We used the R&D Systems Gamma Secretase Activity Kit (as previously reported- ref from R&D Spec sheet) to determine Gamma Secretase Activity in breast cancer cell lines. Cells were washed twice with ice-cold PBS and all following steps, according to manufacturer's protocol were performed at 4 degrees. Briefly, cells were harvested in the Cell Extraction buffer, and incubated on ice for at least 10 minutes, to allow for maximal Buffer activity. Lysates were centrifuged at 10,000×g for 1 minute. Supernatants were collected with a total protein yield between 0.5-1 mg/ml. Pierce BCA Protein Assay was used to determine protein concentration in each sample. 200 microg of was used and incubated with the gamma-secretase fluorogenic substrate for 2 hours at 37° C. Fluorescence was measured at 355/460 nm.

[4] = system: notch intracellular domain in MCF-7 cells; experiment: Staining for notch intracellular domain expression (surrogate marker for GS activity); settings: 48 hours; Gefitinib 15 μM, U0126 10 μM, PD98059 10 μM
Excerpt: (A) GS activity as measured by a fluorescent assay in MCF7 breast cancer cell lines and MCF10A normal cell lines, with and without treatment with the ERK1/2 inhibitor U0126. (B) Sections of MCF7 breast cancer cell lines stained for notch intracellular domain expression (as a surrogate marker for GS activity). Shown are sections of cells untreated (NO), and cells treated with oestrogen (E2), faslodex (FAS), Gefitinib (Gef), GSI1, and the ERK1/2 inhibitors U0126 (U) and. PD98059 (PD). (C) Sections of MCF10A normal cell lines stained for notch intracellular domain expression. Shown are sections of cells untreated (NO), and cells treated with Gefitinib (Gef) and PD98059 (PD).
Cancer and normal cell lines were treated with oestrogen (E2), faslodex (FAS), Gefitinib (Gef 15 μM), GSI1, and the ERK1/2 inhibitors U0126 (U) (10 μM) and PD98059 (PD) (10 μM) for 48 hours and a fluorescent assay performed to measure GS activity. The figures show relative fluorescence therefore the amount of fluorescence in the treated cells relative to the untreated minus background (these figures are corrected for background).

## CCCC[C@@H](C=O)NC(=O)[C@H](CC(C)C)NC(=O)[C@H](CC(C)C)NC(=O)OCc1ccccc1 [GSI1, Z-Leu-Leu-Nle-CHO] (Cbz-Leu-Leu-[Nle]-aldehyde)
[1]
  Notch 1 protein expression: markedly upregulated
  protein expression other than Notch 1 (GS components, Actin, Lamin A/C): only marginal effects on protein expression
[2]; 7, 24 and 48 h post treatment, higher concentration of GSI
  apoptosis level in full cell cycle analysis: > 25%
[2]; higher concentration of GSI
  cell cycle status: majority of cells were in G2/M Cell cycle arrest
[2]; treated 0, 7, 24 and 48 hours
  increase in Annexin V staining indicating apoptosis: approximately 10%
MCF-7 cells
  increase in Annexin V staining: 8%
T47D cells
  increase in Annexin V staining: 8%
MDA-MB-231 cells
  increase in Annexin V staining: 5%
[3]
  reduction in gamma-secretase activity: dose dependant and already significant at the dose of 750 nM
[4]
  notch intracellular domain expression localized to the nucleus compared to untreated cells: appear to increase notch intracellular domain expression localized to the nucleus
